Laboratory results reported in PMC10728849, “Solubility of Some Drugs in Aqueous Solutions of Choline Chloride-Based Deep Eutectic Solvent Systems: Experimental Data, Modeling, and the Impact of Solution pH” (Iranian Journal of Pharmaceutical Research : IJPR, 2023).
≈ marks a conversion by molar mass, not a printed value. Marks after values point to notes of the source that are not given here.

Assays:
[1] = parameters: method as in doi:10.1016/j.molliq.2018.07.065; conditions: cited from earlier work
[2] = Solubility measurement by shake flask method (UV spectrophotometry); conditions: for solubility at 48 h: 37 °C, thermodynamic from solid, 37 ± 1°C; for SChCl-G50%/ SChCl-G10% / SChCl-U50%/ SChCl-U10%: solubility ratio in DES50% to DES10%; for SChCl-G50%/ SChCl-G10%: ChCl-G; for SChCl-U50%/ SChCl-U10%: ChCl-U
Description: A DES composed of ChCl + G/U was selected for this study. It was prepared based on a previously reported method in the literature ([13], [14]). First, the components of DESs, including ChCl as a hydrogen bond acceptor (HBA) and G/U as a hydrogen bond donor (HBD), were weighed using an analytical balance (ATX224, Shimadzu, Japan) with 1×10^-4 g precision at a specific mole fraction of 1:2, respectively. The measured amounts of these compositions were added into a beaker and sealed firmly with Parafilm. Then, it was heated at 70°C while stirring at 550 rpm for 60 minutes until a clear and uniform liquid was formed. At the end of the synthesis process of DES, the prepared liquids were cooled and used as a new class of cosolvents for drug solubilization.
Many different techniques of solubility measurements have been reported in the literature. The shake flask is a popular and convenient method for solubility determination ([21]), which was applied in this study. First, solvent mixtures were made by weighing 10:90% and 50:50% mass fractions of DES: water, respectively. Excess amounts of poorly soluble drugs were added into glass vials containing 4 g prepared solvent mixtures. All of the vials were shaken on a shaker (Heidolph, Schwabach, Germany) and placed in an incubator (Kimia Idea Pardaz Azarbaijan (KIPA) co., Tabriz, Iran) at 37 ± 1°C and 180 rpm for 48 hours. […] The saturated solutions were centrifuged at 6000 rpm for 15 minutes (Tomy Micro One, Tokyo, Japan) and filtered in some cases (Filter Bioscience Membrane Technology Co., 0.22 µm). […] Finally, the absorbance of each solution was converted to concentration using the calibration curves, taking into account the dilution factor. The solubility of each drug was then calculated. Solubilities were determined three times in all cases, and the mean ± standard deviation of data was reported.

[3] = pH of saturated solutions (final pH of dissolution medium); assay type: physicochemical
Source text: Acidic and basic compounds can change the pH of the dissolution medium in water.

[4] = cited from earlier work
[5] = aqueous with cosolvent or surfactant or cyclodextrin, Water + ChCl-G10%, 10:90% mass fraction choline chloride-glycerol (1:2) DES:water
[6] = aqueous with cosolvent or surfactant or cyclodextrin, Water+ ChCl-G50%, 50:50% mass fraction choline chloride-glycerol (1:2) DES:water
[7] = pH 7.5, aqueous with cosolvent or surfactant or cyclodextrin, Water + ChCl-U10%, 10:90% mass fraction choline chloride-urea (1:2) DES:water
[8] = pH 8.3, aqueous with cosolvent or surfactant or cyclodextrin, Water+ ChCl-U50%, 50:50% mass fraction choline chloride-urea (1:2) DES:water

SMILES: c1ccc2c(c1)Nc1ccccc1S2 [Phenothiazine, phenothiazine]
- Solubility, Water [1]: 0.003 ± 0.0004 ^a g/L
- solubility at 48 h [2, 5]: 5 µg/mL
- solubility at 48 h [2, 6]: 99 ± 10 µg/mL (≈ 497 µM)
- solubility at 48 h [2, 7]: 23 ± 0.3 µg/mL
- solubility at 48 h [2, 8]: 135 ± 15 µg/mL (≈ 677 µM)
- SChCl-G50%/ SChCl-G10% [2]: 18.06
- SChCl-U50%/ SChCl-U10% [2]: 5.83

SMILES: CC(C)Cc1ccc(C(C)C(=O)O)cc1 (stereo not drawn) [Ibuprofen]
- Solubility, Water [1]: 0.104 ± 0.0035 ^a g/L
- solubility at 48 h [2, 5]: 141 ± 8 µg/mL
- solubility at 48 h [2, 6]: 242 ± 4 µg/mL (≈ 1170 µM)
- solubility at 48 h [2, 7]: 1300 ± 263 µg/mL
- solubility at 48 h [2, 8]: 3890 ± 622 µg/mL (≈ 18900 µM)
- pH of saturated solution ([3]; in ChCl-U10%): 4.5
- pH of saturated solution ([3]; in ChCl-U50%): 4.9
- pH of saturated solution ([3]; in water): 6.4

SMILES: Nc1nnc(-c2cccc(Cl)c2Cl)c(N)n1 [Lamotrigine, lamotrigine]
- Solubility, Water [1]: 0.342 ± 0.0161 ^a g/L
- solubility at 48 h [2, 5]: 506 ± 17 µg/mL
- solubility at 48 h [2, 6]: 2285 ± 18 µg/mL (≈ 8920 µM)
- solubility at 48 h [2, 7]: 482 ± 15 µg/mL
- solubility at 48 h [2, 8]: 2126 ± 16 µg/mL (≈ 8300 µM)
- SChCl-G50%/ SChCl-G10% [2]: 4.52
- SChCl-U50%/ SChCl-U10% [2]: 4.41

SMILES: CC(=O)N1CCN(c2ccc(OCC3COC(Cn4ccnc4)(c4ccc(Cl)cc4Cl)O3)cc2)CC1 (stereo not drawn) [Ketoconazole, ketoconazole]
- Solubility, Water [1]: 0.008 ± 0.0008 ^a g/L
- solubility at 48 h [2, 5]: 35 ± 1 µg/mL
- solubility at 48 h [2, 6]: 77 ± 7 µg/mL (≈ 145 µM)
- solubility at 48 h [2, 7]: 28 ± 1 µg/mL
- solubility at 48 h [2, 8]: 62 ± 6 µg/mL (≈ 117 µM)
- SChCl-G50%/ SChCl-G10% [2]: 2.16
- SChCl-U50%/ SChCl-U10% [2]: 2.24

SMILES: CC(C)NCC(O)COc1ccc(CC(N)=O)cc1 (stereo not drawn) [Atenolol, atenolol]
- SChCl-G50%/ SChCl-G10% [2]: 1.03
- SChCl-U50%/ SChCl-U10% [2]: 1.05

SMILES: O=C(O)CO [Glycolic acid]
- pKa [4]: 3.6

SMILES: O=C(O)c1ccccc1 [Benzoic acid, benzoic acid]
- SChCl-G50%/ SChCl-G10% [2]: 1.76
- SChCl-U50%/ SChCl-U10% [2]: 3.16

SMILES: CN1C(C(=O)Nc2ccccn2)=C(O)c2ccccc2S1(=O)=O [Piroxicam, piroxicam]
- Solubility, Water [1]: 0.032 ± 0.0014 ^a g/L
- solubility at 48 h [2, 5]: 32 ± 2 µg/mL
- solubility at 48 h [2, 6]: 40 ± 1 µg/mL (≈ 121 µM)
- solubility at 48 h [2, 7]: 571 ± 35 µg/mL
- solubility at 48 h [2, 8]: 2070 ± 36 µg/mL (≈ 6250 µM)
- SChCl-G50%/ SChCl-G10% [2]: 1.28
- SChCl-U50%/ SChCl-U10% [2]: 3.63
- pH of saturated solution ([3]; in ChCl-U10%): 6.1
- pH of saturated solution ([3]; in ChCl-U50%): 6.2
- pH of saturated solution ([3]; in water): 5.6

SMILES: O=C(O)c1ccccc1O [Salicylic acid, salicylic acid]
- Solubility, Water [1]: 2.755 ± 0.3031 ^a g/L
- solubility at 48 h [2, 5]: 7060 ± 422 µg/mL
- solubility at 48 h [2, 6]: 12700 ± 265 µg/mL (≈ 92200 µM)
- solubility at 48 h [2, 7]: 9840 ± 555 µg/mL
- solubility at 48 h [2, 8]: 32400 ± 671 µg/mL (≈ 234000 µM)
- SChCl-G50%/ SChCl-G10% [2]: 1.80
- SChCl-U50%/ SChCl-U10% [2]: 3.29

SMILES: O=C1NC(=O)C(c2ccccc2)(c2ccccc2)N1 [Phenytoin, phenytoin]
- Solubility, Water [1]: 0.056 ± 0.0053 ^a g/L
- solubility at 48 h [2, 5]: 60 ± 5 µg/mL
- solubility at 48 h [2, 6]: 255 ± 20 µg/mL (≈ 1010 µM)
- solubility at 48 h [2, 7]: 104 ± 8 µg/mL
- solubility at 48 h [2, 8]: 753 ± 60 µg/mL (≈ 2980 µM)
- SChCl-G50%/ SChCl-G10% [2]: 4.24
- SChCl-U50%/ SChCl-U10% [2]: 7.25

SMILES: NC(=O)N1c2ccccc2C=Cc2ccccc21 [Carbamazepine, carbamazepine]
- Solubility, Water [1]: 0.296 ± 0.0139 ^a g/L
- solubility at 48 h [2, 6]: 2730 ± 230 µg/mL (≈ 11600 µM)
- solubility at 48 h [2, 7]: 463 ± 10 µg/mL
- solubility at 48 h [2, 8]: 3930 ± 344 µg/mL (≈ 16600 µM)
- SChCl-G50%/ SChCl-G10% [2]: 8.54
- SChCl-U50%/ SChCl-U10% [2]: 8.48

SMILES: COc1ccccc1OCCNCC(O)COc1cccc2[nH]c3ccccc3c12 (stereo not drawn) [Carvedilol, carvedilol]
- Solubility, Water [1]: 0.032 ± 0.0030 ^a g/L
- solubility at 48 h [2, 5]: 159 ± 12 µg/mL
- solubility at 48 h [2, 6]: 873 ± 27 µg/mL (≈ 2150 µM)
- solubility at 48 h [2, 7]: 91 ± 7 µg/mL
- solubility at 48 h [2, 8]: 620 ± 20 µg/mL (≈ 1530 µM)
- SChCl-G50%/ SChCl-G10% [2]: 5.48
- SChCl-U50%/ SChCl-U10% [2]: 6.79

SMILES: CN1CC(=O)N2[C@H](c3ccc4c(c3)OCO4)c3[nH]c4ccccc4c3C[C@@H]2C1=O [Tadalafil, tadalafil]
- Solubility, Water [1]: 0.016 ± 0.0019 ^a g/L
- solubility at 48 h [2, 5]: 17 ± 2 µg/mL
- solubility at 48 h [2, 6]: 91 ± 6 µg/mL (≈ 234 µM)
- solubility at 48 h [2, 7]: 18 ± 2 µg/mL
- solubility at 48 h [2, 8]: 151 ± 10 µg/mL (≈ 388 µM)
- SChCl-G50%/ SChCl-G10% [2]: 5.25
- SChCl-U50%/ SChCl-U10% [2]: 8.42
